Laboratory results published in US11155542B2, “Antimicrobial compounds, their use for the treatment of mammalian infections and a new metabolic mechanism” (priority 2016, dated 2021).
Values after ≈ are worked out from the molar mass of the structure shown.

Tested on: Mtb (PDR) 12700
Assay: Resazurin microtiter assay (REMA), MIC Mtb (PDR) 12700
Assay type: cell-based
Conditions: Mycobacterium tuberculosis; PDR = poly drug resistant (isoniazid and streptomycin)

Structure (SMILES)	MIC [ng/mL]
Cc1c(C(F)(F)F)cc([N+](=O)[O-])c2sc(N3CCC4(CC3)OC[C@H](C)O4)nc(=O)c12 [Example 9b, (S)-5-Methyl-2-(2-methyl-1,4-dioxa-8-azaspiro[4.5]decan-8-yl)-8-nitro-6-(trifluoromethyl)-4H-1,3-benzothiazin-4-one]	4 (≈ 8.98 nM)
Cc1c(C(F)(F)F)cc2c(=O)nc(N3CCC4(CC3)OC[C@H](C)O4)sc2c1[N+](=O)[O-] [Example 9a, (S)-7-Methyl-2-(2-methyl-1,4-dioxa-8-azaspiro[4.5]decan-8-yl)-8-nitro-6-(trifluoromethyl)-4H-1,3-benzothiazin-4-one]	250 (≈ 561 nM)
C[C@H]1COC2(CCN(c3nc(=O)c4cc(C(F)(F)F)cc([N+](=O)[O-])c4s3)CC2)O1 [BTZ043, (S)-2-(2-methyl-1,4-dioxa-8-azaspiro[4.5]decan-8-yl)-8-nitro-6-(trifluoro-methyl)-4H-1,3-benzothiazin-4-one, reference compound]	2 (≈ 4.64 nM)
Cc1c(C(F)(F)F)cc([N+](=O)[O-])c2sc(N3CCN(CC4CCCCC4)CC3)nc(=O)c12 [Example 16, 2-(4-(Cyclohexylmethyl)piperazin-1-yl)-5-methyl-8-nitro-6-(trifluoromethyl)-4H-1,3-benzothiazin-4-one]	≤ 0.063
